Measured values reported in patent US12655090B2, “Cyclopropylamide compounds against parasites in fish” (Intervet Inc., priority 2021, dated 2026).
Read-outs that look alike come from different tables or passages of the source.

Assays:
[1] = system: Lepeophtheirus salmonis sea lice on salmon (Salmo salar); assay: Salmon in vivo efficacy trial using gavage administration; conditions: po
Description: Salmon (Salmo salar) were treated once orally by gavage at a dose of 5 mg/kg bodyweight per fish (Day 0). As formulation DMSO 5%/fish oil 95% was used. Salmon of the negative control group received only the excipients of the formulation. The fish were infested with Lepeophtheirus salmonis copepodids twice before treatment (i.e., around day −28 and day −3) and once after treatment (i.e., day 17). […] Around day 28 (end of animal phase), fish were euthanized, and lice on each fish were classified ((pre-)adult or juvenile stage) and counted. […] Efficacy is expressed as a % reduction of sea lice in treated groups versus a control group, using the Abbott's formula.

[2] = system: Copepodids (juvenile sea lice stage of Lepeophtheirus salmonis); assay: Juvenile sea lice contact assay; conditions: approximately 24 hours continuous exposure in seawater, read-out: Sea lice inhibition (% of dead+damaged copepodids); for inhibition at 0.0001 µM: test concentration 0.1 nM; for inhibition at 0.001 µM: test concentration 1 nM; for inhibition at 0.01 µM: test concentration 10 nM; for inhibition at 0.1 µM: test concentration 100 nM; for inhibition at 10 pM: test concentration 0.01 nM
Description: Copepodids (juvenile sea lice stage of Lepeophtheirus salmonis) were exposed to seawater spiked with declining concentrations of a test compound (dissolved in a DMSO sea-water mixture). Sea lice inhibition (% of dead+damaged copepodids) was assessed after approximately 24 hours of continuous exposure. The vitality of used parasites was confirmed in a negative (solvent) control group.

[3] = system: Mobile stages of sea lice (pre-adults, adults of Lepeophtheirus salmonis); assay: Adult sea lice contact assay; conditions: assessed after approximately 1 and 24 hours of continuous exposure, read-out: EC50 (sea lice inhibition, dead+damaged sea lice)
Description: Mobile stages of sea lice (i.e., pre-adults, adults of Lepeophtheirus salmonis) were exposed to seawater spiked with declining concentrations of a test compound (dissolved in a PEG sea-water mixture). Sea lice inhibition (% of dead+damaged sea lice) was assessed after approximately 1 and 24 hours of continuous exposure in comparison to a negative (solvent) control group.

[4] = 168 h, read-out: therapeutic efficacy against (pre-)adult sea lice (% reduction vs control, Abbott's formula), once orally by gavage 5 mg/kg bodyweight, day -28 infestation, counted at day 7
[5] = 672 h, read-out: therapeutic efficacy against juvenile sea lice (% reduction vs control, Abbott's formula), once orally by gavage 5 mg/kg bodyweight, day -3 infestation, counted around day 28
[6] = 672 h, read-out: prophylactic efficacy at re-infestation on Day 17 (% reduction vs control, Abbott's formula), once orally by gavage 5 mg/kg bodyweight, re-infestation day 17, counted around day 28

Row | Compound | inhibition in vivo at 5 mg/kg [1, 4] [%] | inhibition in vivo at 5 mg/kg [1, 5] [%] | inhibition at 0.0001 µM [2] [%] | EC50 [3] [nM] | inhibition in vivo at 5 mg/kg [1, 6] [%] | inhibition at 0.001 µM [2] [%] | inhibition at 0.01 µM [2] [%] | inhibition at 0.1 µM [2] [%] | inhibition at 10 pM [2] [%]
1 | N#CC1(NC(=O)c2cc(NC(=O)[C@H]3[C@H](c4cc(F)c(F)c(F)c4)C3(Cl)Cl)ccc2F)CC1 [Compound 1623] | 100 | 80 | 100 | 1 to 10 |  |  |  |  | 
2 | C#CC1(NC(=O)c2cc(NC(=O)[C@H]3[C@H](c4cc(Cl)cc(Cl)c4)C3(Cl)Cl)ccc2F)CC1 [Compound 1633, 5-((1R,3R)-2,2-dichloro-3-(3,5-dichlorophenyl)cyclopropane-1-carboxamido)-N-(1-ethynylcyclopropyl)-2-fluorobenzamide] | 100 | 100 |  | ≤ 1 | 80 | 80 |  |  | 
3 | N#CC1(NC(=O)c2cc(NC(=O)[C@H]3[C@H](c4cc(F)c(F)c(F)c4)C3(Cl)Cl)ccc2Cl)CC1 [Compound 1624] | 100 | 80 | 100 | 1 to 10 | 80 |  |  |  | 
4 | C#CC1(NC(=O)c2cc(NC(=O)[C@H]3[C@H](c4cc(Cl)cc(Cl)c4)C3(Cl)Cl)ccc2Cl)CC1 [Compound 1620, 2-chloro-5-((1R,3R)-2,2-dichloro-3-(3,5-dichlorophenyl)cyclopropane-1-carboxamido)-N-(1-ethynylcyclopropyl)benzamide] | 100 | 80 |  | ≤ 1 |  |  | 100 |  | 
5 | O=C(NCC(F)(F)F)c1cc(NC(=O)[C@H]2[C@H](c3ccc(F)c(F)c3)C2(Cl)Cl)ccc1Cl [Compound 1584] | 100 |  | 100 | ≤ 1 |  |  |  |  | 
6 | N#CC1(NC(=O)c2cc(NC(=O)[C@H]3[C@H](c4ccc(Cl)c(F)c4)C3(Cl)Cl)ccc2Cl)CC1 [Compound 1606] | 100 | 100 |  | 10 to 25 |  |  |  | 100 | 
7 | O=C(NC1CC(F)(F)C1)c1cc(NC(=O)[C@H]2[C@H](c3cccc(C(F)(F)F)c3)C2(Cl)Cl)ccc1Cl [Compound 1601] | 100 | 100 |  | 1 to 10 |  | 100 |  |  | 
8 | O=C(NCC(F)(F)F)c1cc(NC(=O)[C@H]2[C@H](c3cc(Cl)cc(Cl)c3)C2(Cl)Cl)ccc1Cl [Compound 1592] | 100 | 100 | 80 | ≤ 1 |  |  |  |  | 
9 | O=C(NC1CC(F)(F)C1)c1cc(NC(=O)[C@H]2[C@H](c3cc(Cl)cc(Cl)c3)C2(Cl)Cl)ccc1Cl [Compound 1625] | 100 | 100 |  | ≤ 1 | 100 |  |  | 100 | 
10 | N#CC1(NC(=O)c2cc(NC(=O)[C@H]3[C@H](c4ccc(F)c(Cl)c4)C3(Cl)Cl)ccc2Cl)CC1 [Compound 1608] | 100 | 100 |  | ≤ 1 |  |  |  |  | 100
11 | C#CCNC(=O)c1cc(NC(=O)[C@H]2[C@H](c3cc(Cl)cc(Cl)c3)C2(Cl)Cl)ccc1Cl [Compound 1622] | 100 |  |  | ≤ 1 |  |  | ≥ 80 |  | 
12 | O=C(NCC(F)(F)F)c1cc(NC(=O)[C@H]2[C@H](c3cc(F)c(F)c(F)c3)C2(Cl)Cl)ccc1Cl [Compound 1593] | 100 | 80 |  | ≤ 1 |  |  |  |  | 100
13 | N#CC1(NC(=O)c2cc(NC(=O)[C@H]3[C@H](c4ccc(Br)c(Cl)c4)C3(Cl)Cl)ccc2Cl)CC1 [Compound 1585] | 100 | 100 |  | 1 to 10 |  |  |  | 100 | 
